{"source": "patent US20210196779A1", "about": "“Compositions and Methods for Treating Steroid Hormone-Related Diseases or Disorders” (YALE UNIVERSITY, priority 2018, published 2021)", "format_in_all_cases": "cell-based", "key": {"22Rv1 cells": {"tested_on": "22Rv1 cells", "test": "Cell growth assay, 22Rv1 prostate cancer cells", "settings": "in the presence or absence of DHT and DEX", "experimental": "(§1) 22RV1 or LNCaP prostate cancer cells were grown in corning T75 cell culture flasks in RPMI1640 medium supplemented with 5% FBS, 50 μg/ml Kanamycin in a 37° C., 5% CO2 incubator.\n(§2) 20,000 cells in 1 ml of medium (phenol red free RPMI1640, 5% charcoal-dialysis FBS, 50 μg/ml Kanamyacin) were seeded per well of a 24-well plate and incubated in a 37° C. incubator with 5% CO2 overnight. Different concentrations of herbal extract were added to each well in order to have final concentrations from 50 μg/ml to 500 μg/ml. […] For glucocorticoid receptor overexpressed LNCaP cells, dexamethasone (50 nM) was used to stimulate glucocorticoid receptor activity. For all breast cancer cells, E2 (10 nM) was used to stimulate ER activity. Control medium without any steroid hormone was used as a control setting. After 4 days of incubation, cells were fixed and stained for 2 h with 0.5% methylene blue in 50% ethanol, followed by washing with tap water to remove unbound dye. Plates were air dried and then cells were dissolved in 1% sarkosyl (sodium lauroyl sarcosinate) by shaking at room temperature for 3 h. […] All experiments were performed in triplicate wells and were repeated at least three times."}, "LNCaP cells": {"tested_on": "LNCaP cells", "test": "Cell growth assay, LNCaP prostate cancer cells", "experimental": "as §1, §2"}, "[1]": {"tested_on": "LNCaP-GR (GR overexpressing) cells", "test": "Cell growth assay, GR overexpressing LNCaP cells", "settings": "DEX stimulated", "experimental": "as §2"}, "GR (stimulated with DEX)": {"target": "T1, GR (stimulated with DEX) (Homo sapiens, UniProt P04150)", "T1 construct": "expressed in transfected cells; host or cells: LNCaP (LNCaP-GR)", "T1 sequence (P04150 whole entry)": "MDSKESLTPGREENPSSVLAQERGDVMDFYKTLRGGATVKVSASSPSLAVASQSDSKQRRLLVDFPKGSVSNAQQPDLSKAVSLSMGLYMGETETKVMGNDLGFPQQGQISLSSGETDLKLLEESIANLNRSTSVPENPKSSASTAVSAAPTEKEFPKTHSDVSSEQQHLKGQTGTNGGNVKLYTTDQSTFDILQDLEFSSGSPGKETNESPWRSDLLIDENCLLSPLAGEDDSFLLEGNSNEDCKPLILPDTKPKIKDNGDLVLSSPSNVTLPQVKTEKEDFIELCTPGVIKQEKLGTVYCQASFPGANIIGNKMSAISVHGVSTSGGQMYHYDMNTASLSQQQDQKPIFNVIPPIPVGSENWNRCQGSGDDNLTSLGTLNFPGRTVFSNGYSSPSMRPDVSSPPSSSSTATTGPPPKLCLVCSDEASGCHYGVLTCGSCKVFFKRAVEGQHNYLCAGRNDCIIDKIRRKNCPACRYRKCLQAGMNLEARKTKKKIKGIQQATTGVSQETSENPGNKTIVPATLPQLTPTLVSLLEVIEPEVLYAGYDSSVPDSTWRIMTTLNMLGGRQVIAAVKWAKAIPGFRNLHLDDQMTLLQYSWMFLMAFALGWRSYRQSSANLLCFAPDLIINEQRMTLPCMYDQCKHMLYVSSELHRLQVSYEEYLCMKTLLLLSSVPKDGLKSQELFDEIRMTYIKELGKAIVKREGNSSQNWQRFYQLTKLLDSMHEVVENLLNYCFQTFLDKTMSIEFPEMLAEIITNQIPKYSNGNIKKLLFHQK", "test": "GR driven luciferase activity (DEX) in LNCaP-GR cells", "settings": "LNCaP-GR luciferase reporter cells", "experimental": "Both LNCaP and GR overexpressing LNCaP cells were carrying luciferase reporters with AR response elements.\n(§3) Reporter cells were treated with herbal extracts at 30, 100, 300, and 1000 μg/ml for 24 h in a 37° C.-CO2 incubator. DHT (25 nM) was used to stimulate androgen receptor activity. Dexamethasone (50 nM) was used to stimulate glucocorticoid receptor activity Cells were lysed using luciferase lysis buffer after which luciferase buffer with luciferin was added to generate luminescence. Luminescence was recorded using a luminescence microplate reader."}, "androgen receptor (AR)": {"tested_on": "androgen receptor (AR)", "test": "PSA-luciferase reporter assay, DHT induced, 22RV1 cells", "settings": "equivalent doses, 22RV1 cells in the presence of DHT", "experimental": "22RV1 or LNCaP prostate cancer cells were used in the screening study. 22RV1 or LNCaP cell lines were stably transfected with PSA promoter-PGL4.2 luciferase reporter. DHT (25 nM) was used to stimulate androgen receptor activity for 24 h.\nas §3"}}}
{"smiles": "CNC(=O)c1ccc(N2C(=S)N(c3ccc(C#N)c(C(F)(F)F)c3)C(=O)C2(C)C)cc1F", "note": "[Enzalutamide, reference compound]", "values": [{"measurement": "growth inhibitory effect on 22RV1 cells (in words)", "setting": "22Rv1 cells", "value": "resistant"}, {"measurement": "susceptibility of LNCaP cell growth to treatment (in words)", "setting": "LNCaP cells; in the absence of DHT", "value": "not be susceptible"}, {"measurement": "sensitivity of LNCaP cell growth to treatment (in words)", "setting": "LNCaP cells; in the presence of DHT", "value": "more sensitive"}, {"measurement": "resistance of LNCaP-GR cell growth (in words)", "setting": "[1]", "value": "resistant"}, {"measurement": "inhibition of DEX induced transcriptional response", "setting": "GR (stimulated with DEX)", "value": "but not DEX induced transcriptional response"}]}
{"smiles": "Cc1c(O)cc2c(c1O)C(=O)c1ccc(O)cc1C2=O", "note": "[TMT, 1,3,6-Trihydroxy-2-methyl-9,10-anthracenedione]", "values": [{"measurement": "inhibitory effect on AR mediated transcriptional response", "setting": "androgen receptor (AR)", "value": "very weak activity"}]}
